Laboratory results from ChEMBL document CHEMBL4382204 (Eur J Med Chem, 2018).

Tests used:
[1] = Half life in Sprague-Dawley rat at 10 mg/kg, po by LC-MS/MS analysis; type: ADME, organism-based; conditions: in vivo
[2] = Cmax in mouse at 1 mg/kg, iv by LC-MS/MS analysis; type: ADME, organism-based; set-up: dose 1 mg/kg, route intravenous; conditions: in vivo
[3] = Half life in mouse at 1 mg/kg, iv by LC-MS/MS analysis; type: ADME, organism-based; conditions: in vivo
HL-60 = experiment: Antiproliferative activity in human HL60 cells after 72 hrs by CCK8 assay; type: functional; conditions: HL-60, 72 h
[4] = MRT (0 to t) in mouse at 10 mg/kg, po by LC-MS/MS analysis; type: ADME, organism-based; conditions: in vivo

SMILES: CN1CCN(Cc2ccc(NC(=O)CCSc3ccc4c(/C=C/c5ccccn5)n[nH]c4c3)cc2C(F)(F)F)CC1
- half-life [1]: 2.6 h
- Cmax [2]: 525 ng/mL
- half-life [3]: 5 h
- GI50 (HL-60): 870 nM
- MRT last [4]: 3.3 h
